Active and inactive are the calls of the source. No cut-off for these calls is given here.
Tests used:
[1] = biological target: Histamine H2 receptor (Homo sapiens) (UniProt P25021); assay: Activity at human H2 receptor at 10 uM
[2] = biological target: 5-hydroxytryptamine receptor 2A (Homo sapiens) (UniProt P28223); assay: Activity at human 5-HT2A receptor at 10 uM
[3] = biological target: Prostaglandin E2 receptor EP2 subtype (Homo sapiens) (UniProt P43116); assay: Activity at human Prostanoid EP2 receptor at 10 uM
[4] = biological target: Urotensin-2 receptor (Homo sapiens) (UniProt Q9UKP6); assay: Activity at human GPR14 receptor at 10 uM
Urotensin-2 receptor (Homo sapiens), sequence (Q9UKP6 whole entry): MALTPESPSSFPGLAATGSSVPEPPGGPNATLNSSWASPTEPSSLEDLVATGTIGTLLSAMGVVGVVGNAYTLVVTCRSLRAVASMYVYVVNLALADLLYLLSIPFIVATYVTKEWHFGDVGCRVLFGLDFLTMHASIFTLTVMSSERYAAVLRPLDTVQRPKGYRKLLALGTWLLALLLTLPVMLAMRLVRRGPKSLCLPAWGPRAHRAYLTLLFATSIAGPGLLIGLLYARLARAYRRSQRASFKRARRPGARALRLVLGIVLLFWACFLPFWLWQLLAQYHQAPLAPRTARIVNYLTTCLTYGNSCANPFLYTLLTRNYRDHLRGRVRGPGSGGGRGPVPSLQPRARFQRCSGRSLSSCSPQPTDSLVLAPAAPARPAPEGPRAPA

[5] = biological target: Neurotensin receptor type 1 (Homo sapiens) (UniProt P30989); assay: Activity at human NTR1 receptor at 10 uM
Neurotensin receptor type 1 (Homo sapiens), sequence (P30989 whole entry): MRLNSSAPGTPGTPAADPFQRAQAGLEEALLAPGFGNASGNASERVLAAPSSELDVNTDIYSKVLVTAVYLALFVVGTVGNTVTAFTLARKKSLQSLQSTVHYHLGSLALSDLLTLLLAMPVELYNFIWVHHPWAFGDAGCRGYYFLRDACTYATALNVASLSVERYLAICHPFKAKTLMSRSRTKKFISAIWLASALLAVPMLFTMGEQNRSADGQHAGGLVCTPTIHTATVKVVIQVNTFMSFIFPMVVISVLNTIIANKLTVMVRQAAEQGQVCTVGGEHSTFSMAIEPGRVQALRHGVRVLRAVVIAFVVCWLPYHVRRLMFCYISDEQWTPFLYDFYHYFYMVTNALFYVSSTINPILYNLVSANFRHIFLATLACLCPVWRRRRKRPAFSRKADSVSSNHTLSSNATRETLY

[6] = biological target: Serine/threonine-protein kinase STK11 (Homo sapiens) (UniProt Q15831); assay: Activity at human LKB1 at 10 uM
Serine/threonine-protein kinase STK11 (Homo sapiens), sequence (Q15831 whole entry): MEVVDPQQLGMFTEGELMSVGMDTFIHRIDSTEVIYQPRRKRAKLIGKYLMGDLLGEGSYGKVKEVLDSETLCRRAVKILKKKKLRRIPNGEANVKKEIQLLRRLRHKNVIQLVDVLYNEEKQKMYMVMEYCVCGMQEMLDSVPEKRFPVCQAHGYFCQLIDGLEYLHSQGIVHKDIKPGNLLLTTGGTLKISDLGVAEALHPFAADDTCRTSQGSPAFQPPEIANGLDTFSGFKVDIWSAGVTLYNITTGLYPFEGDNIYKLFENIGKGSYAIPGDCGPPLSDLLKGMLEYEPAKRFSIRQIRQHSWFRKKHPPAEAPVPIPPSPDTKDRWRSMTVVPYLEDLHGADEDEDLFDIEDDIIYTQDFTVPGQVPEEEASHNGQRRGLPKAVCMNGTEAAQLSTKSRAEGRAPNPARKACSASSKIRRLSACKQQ

[7] = Cmax in patient with advanced solid tumor at 40 mg, po administered once daily measured on day 15; type: ADME, organism-based; set-up: dose 40 mg, route oral; conditions: human, in vivo
[8] = biological target: Mitogen-activated protein kinase 14 (Homo sapiens) (UniProt Q16539); assay: Activity at human SAPK2a at 10 uM
[9] = biological target: Protein kinase C epsilon type (Homo sapiens) (UniProt Q02156); assay: Activity at human PKCepsilon at 10 uM
[10] = biological target: CDK9/cyclin T1 (Homo sapiens) (UniProt O60563+P50750); assay: Activity at human CDK9/cyclinT1 at 10 uM; type: protein-complex assay
[11] = biological target: Muscarinic acetylcholine receptor M2 (Homo sapiens) (UniProt P08172); assay: Activity at human M2 receptor at 10 uM
Muscarinic acetylcholine receptor M2 (Homo sapiens), sequence (P08172 whole entry): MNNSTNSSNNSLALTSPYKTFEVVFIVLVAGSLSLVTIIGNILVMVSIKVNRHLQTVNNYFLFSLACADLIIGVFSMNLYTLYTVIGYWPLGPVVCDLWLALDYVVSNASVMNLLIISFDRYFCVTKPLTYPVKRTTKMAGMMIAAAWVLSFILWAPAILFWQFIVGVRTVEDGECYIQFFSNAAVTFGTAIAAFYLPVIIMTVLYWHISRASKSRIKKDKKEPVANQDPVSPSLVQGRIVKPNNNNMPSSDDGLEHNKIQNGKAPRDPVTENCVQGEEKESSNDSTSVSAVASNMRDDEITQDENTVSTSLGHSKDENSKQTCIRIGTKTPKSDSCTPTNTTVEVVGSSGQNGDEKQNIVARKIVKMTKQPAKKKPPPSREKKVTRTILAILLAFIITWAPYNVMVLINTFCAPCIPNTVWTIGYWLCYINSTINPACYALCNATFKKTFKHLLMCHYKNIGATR

[12] = biological target: T1, UDP-glucuronosyltransferase 2B17 (Homo sapiens, UniProt O75795); assay: Substrate activity at UGT2B17 in human intestinal microsomes assessed as enzyme-mediated glucuronidation by measuring Vmax per mg protein at 2 to 1000 uM preincubated for 5 mins followed by UDPGA addition and measured after 60 mins by LC-MS/MS analysis; type: ADME, Intestine; conditions: 1 h
T1 sequence (O75795 whole entry): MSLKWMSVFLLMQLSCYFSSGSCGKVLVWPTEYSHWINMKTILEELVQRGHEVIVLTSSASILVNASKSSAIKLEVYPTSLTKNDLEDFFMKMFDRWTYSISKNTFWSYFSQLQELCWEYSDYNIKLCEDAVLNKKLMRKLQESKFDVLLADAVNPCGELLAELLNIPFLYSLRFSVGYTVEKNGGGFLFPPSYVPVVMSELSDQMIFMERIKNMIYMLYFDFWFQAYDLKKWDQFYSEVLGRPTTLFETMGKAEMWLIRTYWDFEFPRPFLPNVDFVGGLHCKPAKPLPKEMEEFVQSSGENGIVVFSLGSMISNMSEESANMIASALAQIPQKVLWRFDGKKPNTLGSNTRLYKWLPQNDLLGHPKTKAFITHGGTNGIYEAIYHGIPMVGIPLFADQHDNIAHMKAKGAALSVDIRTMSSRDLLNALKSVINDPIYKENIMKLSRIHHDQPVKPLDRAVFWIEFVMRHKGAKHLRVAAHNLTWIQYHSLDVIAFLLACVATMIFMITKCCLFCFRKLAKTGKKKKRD

[13] = Plasma concentration in patient with advanced solid tumor at 20 mg, po administered once daily measured on day 15 after 24 hrs; type: ADME, organism-based; conditions: human
[14] = Drug level in plasma of SCID Beige mouse xenografted with human 786-O cells at 1 mg/kg, po administered twice daily via gavage for 3 days measured 12 hrs post-last dose; type: ADME, organism-based
[15] = biological target: Tyrosine-protein phosphatase non-receptor type 1 (Homo sapiens) (UniProt P18031); assay: Activity at human PTP1B at 10 uM
[16] = Volume of distribution at steady state in CD-1 mouse at 3 mg/kg, iv by UPLC-MS analysis; type: ADME, organism-based; conditions: in vivo, read-out: Vdss
[17] = Plasma concentration in patient with advanced solid tumor at 120 mg, po administered once daily measured on day 15 after 24 hrs; type: ADME, organism-based; conditions: human
[18] = biological target: Vasoactive intestinal polypeptide receptor 2 (Homo sapiens) (UniProt P41587); assay: Activity at human VPAC2 at 10 uM
[19] = AUClast in patient with advanced solid tumor at 120 mg, po administered once daily measured on day 15; type: ADME, organism-based; set-up: dose 120 mg, route oral, time 0 - last; conditions: human, in vivo
[20] = biological target: Protein kinase C zeta type (Homo sapiens) (UniProt Q05513); assay: Activity at human PKCzeta at 10 uM
Protein kinase C zeta type (Homo sapiens), sequence (Q05513 whole entry): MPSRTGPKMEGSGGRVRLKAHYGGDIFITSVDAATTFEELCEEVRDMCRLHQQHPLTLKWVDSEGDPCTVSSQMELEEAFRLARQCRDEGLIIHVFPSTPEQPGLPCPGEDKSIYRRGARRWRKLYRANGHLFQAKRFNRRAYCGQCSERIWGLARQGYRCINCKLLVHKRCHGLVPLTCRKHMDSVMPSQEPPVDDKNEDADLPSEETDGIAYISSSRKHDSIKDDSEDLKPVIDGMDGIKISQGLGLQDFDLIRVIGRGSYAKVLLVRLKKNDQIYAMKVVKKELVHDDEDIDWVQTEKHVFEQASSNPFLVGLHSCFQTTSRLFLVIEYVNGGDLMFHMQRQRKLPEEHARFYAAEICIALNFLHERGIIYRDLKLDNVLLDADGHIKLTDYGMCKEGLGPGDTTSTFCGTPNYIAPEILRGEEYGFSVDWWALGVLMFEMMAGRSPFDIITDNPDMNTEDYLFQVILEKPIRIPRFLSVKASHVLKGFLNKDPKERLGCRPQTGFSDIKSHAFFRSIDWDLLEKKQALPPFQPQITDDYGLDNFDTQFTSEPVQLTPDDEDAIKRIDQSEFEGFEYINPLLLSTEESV

[21] = biological target: Melanocortin receptor 5 (Homo sapiens) (UniProt P33032); assay: Activity at human MC5 receptor at 10 uM
[22] = biological target: Type-1 angiotensin II receptor (Homo sapiens) (UniProt P30556); assay: Activity at human AT1 receptor at 10 uM
[23] = biological target: Protein kinase C iota type (Homo sapiens) (UniProt P41743); assay: Activity at human PKCiota at 10 uM
[24] = Half life in CD-1 mouse at 3 mg/kg, iv by UPLC-MS analysis; type: ADME, organism-based; conditions: in vivo
[25] = biological target: Thromboxane A2 receptor (Homo sapiens) (UniProt P21731); assay: Activity at human Prostanoid TP receptor at 10 uM
Thromboxane A2 receptor (Homo sapiens), sequence (P21731 whole entry): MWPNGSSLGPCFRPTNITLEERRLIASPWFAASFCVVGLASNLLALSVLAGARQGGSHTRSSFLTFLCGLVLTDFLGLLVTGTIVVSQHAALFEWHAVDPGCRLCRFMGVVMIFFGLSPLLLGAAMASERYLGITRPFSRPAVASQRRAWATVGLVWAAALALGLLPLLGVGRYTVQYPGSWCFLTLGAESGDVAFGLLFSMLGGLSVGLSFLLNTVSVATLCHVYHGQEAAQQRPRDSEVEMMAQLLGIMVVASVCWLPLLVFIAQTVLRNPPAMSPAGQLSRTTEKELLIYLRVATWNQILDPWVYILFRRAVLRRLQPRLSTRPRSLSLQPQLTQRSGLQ

[26] = biological target: Cannabinoid receptor 2 (Homo sapiens) (UniProt P34972); assay: Activity at human CB2 receptor at 10 uM
[27] = biological target: Motilin receptor (Homo sapiens) (UniProt O43193); assay: Activity at human MTLR receptor at 10 uM
Motilin receptor (Homo sapiens), sequence (O43193 whole entry): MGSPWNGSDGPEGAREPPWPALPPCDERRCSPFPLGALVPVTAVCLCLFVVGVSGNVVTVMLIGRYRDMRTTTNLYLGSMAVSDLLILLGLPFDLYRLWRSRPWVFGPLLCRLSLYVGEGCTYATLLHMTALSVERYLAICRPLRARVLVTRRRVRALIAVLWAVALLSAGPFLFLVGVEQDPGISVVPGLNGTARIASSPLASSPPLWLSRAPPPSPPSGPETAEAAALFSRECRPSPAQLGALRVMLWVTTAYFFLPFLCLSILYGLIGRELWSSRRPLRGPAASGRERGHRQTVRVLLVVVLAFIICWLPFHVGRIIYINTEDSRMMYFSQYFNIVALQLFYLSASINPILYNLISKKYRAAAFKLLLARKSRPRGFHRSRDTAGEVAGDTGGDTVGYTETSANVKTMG

[28] = biological target: CDK7/Cyclin H/MNAT1 (Homo sapiens) (UniProt P51946+P50613+P51948); assay: Activity at human CDK7/cyclinH/MAT1 at 10 uM; type: protein-complex assay
[29] = biological target: Protein kinase C delta type (Homo sapiens) (UniProt Q05655); assay: Activity at human PKCdelta at 10 uM
Protein kinase C delta type (Homo sapiens), sequence (Q05655 whole entry, looked up): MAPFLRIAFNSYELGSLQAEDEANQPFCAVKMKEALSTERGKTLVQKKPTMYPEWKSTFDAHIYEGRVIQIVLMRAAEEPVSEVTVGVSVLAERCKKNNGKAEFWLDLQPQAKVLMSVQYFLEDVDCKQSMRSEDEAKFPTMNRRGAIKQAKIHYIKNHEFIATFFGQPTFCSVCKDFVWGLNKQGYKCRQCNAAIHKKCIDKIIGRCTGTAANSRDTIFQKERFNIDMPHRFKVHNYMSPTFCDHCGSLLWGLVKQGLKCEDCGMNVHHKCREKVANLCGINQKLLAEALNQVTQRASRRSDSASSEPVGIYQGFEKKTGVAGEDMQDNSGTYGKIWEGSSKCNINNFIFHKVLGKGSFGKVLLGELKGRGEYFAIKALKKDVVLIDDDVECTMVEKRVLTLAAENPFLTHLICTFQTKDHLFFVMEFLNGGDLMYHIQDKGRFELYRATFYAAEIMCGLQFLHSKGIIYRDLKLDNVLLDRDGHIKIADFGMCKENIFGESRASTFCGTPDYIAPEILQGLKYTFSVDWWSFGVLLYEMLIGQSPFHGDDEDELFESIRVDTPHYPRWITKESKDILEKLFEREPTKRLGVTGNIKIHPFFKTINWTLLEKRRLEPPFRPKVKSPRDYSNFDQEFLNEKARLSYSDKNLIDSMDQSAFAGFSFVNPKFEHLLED

[30] = biological target: Prostacyclin receptor (Homo sapiens) (UniProt P43119); assay: Activity at human Prostanoid IP1 receptor at 10 uM; type: functional
[31] = biological target: Glycogen synthase kinase-3 beta (Homo sapiens) (UniProt P49841); assay: Activity at human GSK3beta at 10 uM
Glycogen synthase kinase-3 beta (Homo sapiens), sequence (P49841 whole entry, looked up): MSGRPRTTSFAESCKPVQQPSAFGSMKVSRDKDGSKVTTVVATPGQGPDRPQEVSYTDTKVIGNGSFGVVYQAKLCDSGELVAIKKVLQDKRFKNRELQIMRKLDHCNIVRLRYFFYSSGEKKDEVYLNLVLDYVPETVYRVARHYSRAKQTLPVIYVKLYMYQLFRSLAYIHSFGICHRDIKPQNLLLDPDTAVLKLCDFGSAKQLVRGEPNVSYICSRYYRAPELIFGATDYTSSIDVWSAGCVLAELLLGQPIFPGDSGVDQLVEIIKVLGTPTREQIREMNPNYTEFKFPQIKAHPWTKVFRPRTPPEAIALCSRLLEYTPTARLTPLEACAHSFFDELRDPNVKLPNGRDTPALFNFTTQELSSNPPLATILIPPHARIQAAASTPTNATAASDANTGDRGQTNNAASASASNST

[32] = biological target: Histamine H3 receptor (Homo sapiens) (UniProt Q9Y5N1); assay: Activity at human H3 receptor at 10 uM
Histamine H3 receptor (Homo sapiens), sequence (Q9Y5N1 whole entry): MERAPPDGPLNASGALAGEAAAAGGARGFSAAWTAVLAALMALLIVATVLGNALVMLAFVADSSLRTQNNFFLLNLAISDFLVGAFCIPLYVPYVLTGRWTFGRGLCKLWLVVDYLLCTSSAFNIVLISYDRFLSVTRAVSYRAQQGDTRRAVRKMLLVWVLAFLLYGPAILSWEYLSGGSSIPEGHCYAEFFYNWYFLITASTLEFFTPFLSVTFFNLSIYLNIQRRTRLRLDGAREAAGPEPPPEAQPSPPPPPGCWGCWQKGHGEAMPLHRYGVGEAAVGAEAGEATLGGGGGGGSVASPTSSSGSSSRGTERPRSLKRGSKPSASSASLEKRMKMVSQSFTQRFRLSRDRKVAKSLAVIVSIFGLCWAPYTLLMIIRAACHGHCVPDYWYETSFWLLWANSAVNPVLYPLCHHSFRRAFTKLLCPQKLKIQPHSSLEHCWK

[33] = biological target: Delta-type opioid receptor (Homo sapiens) (UniProt P41143); assay: Activity at human delta opioid receptor at 10 uM
[34] = biological target: Adenosine receptor A3 (Homo sapiens) (UniProt P0DMS8); assay: Activity at human adenosine A3 receptor at 10 uM
[35] = AUClast in patient with advanced solid tumor at 40 mg, po administered once daily measured on day 15; type: ADME, organism-based; set-up: dose 40 mg, time 0 - last, route oral; conditions: human, in vivo
[36] = Protein binding in human plasma at 10 uM measured after 4 hrs by LC-MS/MS analysis; type: ADME, cell-free; conditions: read-out: PPB (converted)
[37] = biological target: Cyclin-dependent kinase 2/cyclin E1 (Homo sapiens) (UniProt P24864+P24941); assay: Activity at human CDK2/cyclinE at 10 uM; type: protein-complex assay
Homo sapiens = assay: In vivo inhibition of HIF-2alpha in po dosed patient with advanced solid tumor assessed as reduction in EPO expression administered once daily; type: organism-based
[38] = Lipophilicity, log D of the compound at pH 7.4; type: physicochemical; conditions: buffer

Histamine H2 receptor (Homo sapiens), sequence (P25021 whole entry): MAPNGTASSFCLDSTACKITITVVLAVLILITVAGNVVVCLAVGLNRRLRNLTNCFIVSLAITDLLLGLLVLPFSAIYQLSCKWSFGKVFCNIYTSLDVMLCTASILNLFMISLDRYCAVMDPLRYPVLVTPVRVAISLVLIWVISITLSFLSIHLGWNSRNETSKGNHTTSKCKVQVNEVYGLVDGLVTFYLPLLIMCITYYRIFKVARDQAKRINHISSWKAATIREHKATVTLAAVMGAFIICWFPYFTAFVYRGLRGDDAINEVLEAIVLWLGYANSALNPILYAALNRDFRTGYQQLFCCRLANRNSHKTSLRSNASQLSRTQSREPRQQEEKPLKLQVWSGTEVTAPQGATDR

Activity [1]: inactive
Activity [2]: inactive
Activity [3]: inactive
Activity [4]: inactive
Activity [5]: inactive
Activity [6]: inactive
Cmax [7]: 500 ng/mL
Activity [8]: inactive
Activity [9]: inactive
Activity [10]: inactive
Activity [11]: inactive
Vmax [12]: 0.5 pmol/min
concentration at 24 h [13]: 60 ng/mL
concentration at 12 h [14]: 27 ng/mL
Activity [15]: inactive
Vd [16]: 4.9 L/kg
concentration at 24 h [17]: 710 ng/mL
Activity [18]: inactive
AUC(0-t) [19]: 25900 ng·h/mL
Activity [20]: inactive
Activity [21]: inactive
Activity [22]: inactive
Activity [23]: inactive
half-life [24]: 4 h
Activity [25]: inactive
Activity [26]: inactive
Activity [27]: inactive
Activity [28]: inactive
Activity [29]: inactive
Activity [30]: inactive
Activity [31]: inactive
Activity [32]: inactive
Activity [33]: inactive
Activity [34]: inactive
AUC(0-t) [35]: 7100 ng·h/mL
fraction unbound at 4 h, 10 µM [36]: 0.48
Activity [37]: inactive
inhibition (INH) (Homo sapiens): Dose-dependent effect
logD [38]: 1.2
Compound: CS(=O)(=O)c1ccc(Oc2cc(F)cc(C#N)c2)c2c1[C@H](O)[C@H](F)[C@@H]2F [BELZUTIFAN]

Reference: ChEMBL document CHEMBL4311943, “3-[(1S,2S,3R)-2,3-Difluoro-1-hydroxy-7-methylsulfonylindan-4-yl]oxy-5-fluorobenzonitrile (PT2977), a Hypoxia-Inducible Factor 2α (HIF-2α) Inhibitor for the Treatment of Clear Cell Renal Cell Carcinoma” (J Med Chem, 2019)
